{"source": "patent US10280197B2", "about": "“Discovery of the first selective C5A receptor 2 (C5L2/C5AR2) ligands” (The Regents of the University of California, priority 2015, dated 2019)", "key": {"[1]": {"tested_on": "C5a-induced neutrophil mobilization", "assay": "C5a-induced neutrophil mobilization in wild-type mice", "type": "in vivo, C57BL/6J wild-type mice", "details": "P32 3 mg/kg i.v. with C5a 50 μg/kg, 30 min", "description": "(§1) FIG. 6 is a panel of graphs showing that P32 inhibits C5a-induced neutrophil mobilization in vivo in a C5aR2 dependent manner. Neutrophil mobilization quantified 30 min after i.v. injection of PBS, C5a (50 μg/kg), or P32 (3 mg/kg) with and without C5a present into the femoral vein of either C57BL/6J wild-type (6A) or C5aR2^−/− (6B) on a C57BL/6J background mice. Total circulating leukocyte counts were determined from blood smears and total white blood cell counts using a hemocytometer. Data are representative from at least 6 mice per treatment group and blood smears in triplicate (n=6). Error bars represent SEM. * P<0.05, *** P<0.001 by one-way ANOVA followed by Dunnett's post hoc test\n(§2) To further explore the selectivity of the ligands P32 was tested in a mouse model of C5a-induced neutrophil mobilization (FIG. 6). […] Assuming a mouse blood volume of 2 mL for a 25 g mouse, a concentration of 3 mg/kg would result in Cmax blood concentrations of ˜50 uM, a dose within the active range of this compound from our in vitro studies"}, "[2]": {"tested_on": "C5a-induced neutrophil mobilization", "assay": "C5a-induced neutrophil mobilization in C5aR2-/- mice", "type": "in vivo, C5aR2-/- mice on a C57BL/6J background", "details": "P32 3 mg/kg i.v. with C5a 50 μg/kg, 30 min", "description": "as §1, §2"}}, "data": [{"substance": "Ac-RHYPYWR-OH [Peptide P32, Ac-RHYPYWR-OH]", "values": [{"measurement": "inhibition of C5a-induced neutrophil mobilization", "setting": "[1]", "value": "significantly inhibit"}, {"measurement": "inhibition of C5a-induced neutrophil mobilization", "setting": "[2]", "value": "attenuated"}]}]}
